For this test, the target named is T1, Human recombinant HDAC6 (Homo sapiens, UniProt Q9UBN7).
T1 sequence (Q9UBN7 1-1215): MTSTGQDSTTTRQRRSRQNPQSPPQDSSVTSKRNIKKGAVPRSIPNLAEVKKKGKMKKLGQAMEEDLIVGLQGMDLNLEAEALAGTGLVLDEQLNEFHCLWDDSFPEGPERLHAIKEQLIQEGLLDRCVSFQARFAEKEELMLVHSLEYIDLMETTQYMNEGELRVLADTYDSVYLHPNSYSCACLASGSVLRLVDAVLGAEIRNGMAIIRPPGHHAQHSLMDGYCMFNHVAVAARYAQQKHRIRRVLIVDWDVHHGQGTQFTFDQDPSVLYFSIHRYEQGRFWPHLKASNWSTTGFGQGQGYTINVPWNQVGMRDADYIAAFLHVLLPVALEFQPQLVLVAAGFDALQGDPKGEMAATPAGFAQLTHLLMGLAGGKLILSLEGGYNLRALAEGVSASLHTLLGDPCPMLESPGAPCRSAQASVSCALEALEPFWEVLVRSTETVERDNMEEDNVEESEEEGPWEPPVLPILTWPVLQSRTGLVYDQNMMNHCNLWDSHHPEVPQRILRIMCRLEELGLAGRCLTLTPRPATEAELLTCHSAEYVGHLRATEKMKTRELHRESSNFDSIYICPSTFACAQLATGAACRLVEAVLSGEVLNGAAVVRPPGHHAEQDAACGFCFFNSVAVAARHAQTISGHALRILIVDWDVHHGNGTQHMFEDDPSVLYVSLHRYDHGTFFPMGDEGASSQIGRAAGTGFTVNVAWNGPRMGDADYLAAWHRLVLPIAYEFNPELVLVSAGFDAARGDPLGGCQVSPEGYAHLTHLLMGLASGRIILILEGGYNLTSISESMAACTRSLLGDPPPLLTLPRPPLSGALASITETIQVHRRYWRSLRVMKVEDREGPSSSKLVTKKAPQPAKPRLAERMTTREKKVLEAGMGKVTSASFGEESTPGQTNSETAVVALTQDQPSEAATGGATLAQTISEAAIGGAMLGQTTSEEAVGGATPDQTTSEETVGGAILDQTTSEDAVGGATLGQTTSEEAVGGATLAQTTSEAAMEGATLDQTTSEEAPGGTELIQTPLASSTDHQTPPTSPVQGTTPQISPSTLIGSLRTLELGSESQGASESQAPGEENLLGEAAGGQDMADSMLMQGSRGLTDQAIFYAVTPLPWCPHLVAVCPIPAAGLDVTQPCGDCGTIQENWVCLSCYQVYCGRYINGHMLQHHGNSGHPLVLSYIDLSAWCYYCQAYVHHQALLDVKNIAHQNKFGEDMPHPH
Kind of test: HDAC isomer assay, Fluor-de-Lys, HDAC6. The settings on record: proof of concept; FIGS. 11 and 12; read-out: EC50 against HDAC6. The format is biochemical. On the procedure:
The HDAC isomer (HDAC1, 3, and 6) assays were performed as follows:
Materials: Human recombinant HDAC isomer (HDAC1, HDAC3, and HDAC6); Fluor-de-Lys HDAC substrates; 360 nm excitation 460 nm emission Plate Reader; Disposable pipettes; Pipet-aid; Pipette tips; Micro-pipetter; DMSO; Sterile micro-tubes and conical tubes; and Micro-centrifuge.
Test compounds and control preparation: All test compounds' stock solutions were made in 100% DMSO. Test compound dilutions were made in HDAC Assay buffer with a final concentration of DMSO less than or equal to 1%. Vehicle control was HDAC Assay buffer with 1% DMSO.
The reagents for the assay were prepared as follows:
1. All kit components were defrosted and these, and all dilutions described below, were kept on ice until use.
2. A sufficient amount of HDAC source diluted in Assay Buffer (BML-KI143) was prepared to provide for the assays that were performed (# of wells×15 μl). A 30-fold dilution of the HeLa Extract means that 15p L contains 0.5 μl of the undiluted Extract, an appropriate amount to use per well.
3. Dilution(s) of SAHA and/or Test Inhibitors were prepared in Assay Buffer (BML-KI143). Since 10 μl were used per well, and since the final volume of the HDAC reaction was 50p, these inhibitor dilutions were 5× their final concentration.
4. Dilution(s) of the Fluor de Lys® Substrate (BML-KI104; 50 mM) were prepared in Assay Buffer (BML-KI143) that were 2× the desired final concentration(s). For inhibitor screening, substrate concentrations at or below the Km are recommended. Twenty-five μL were used per well. […] Rapid mixing and dilution into room temperature buffer helped to prevent precipitation at high substrate concentration.
5. Shortly before use (<30 min.), sufficient Fluor de Lys® Developer was prepared for the assays to be performed (50 μl per well). First, the Fluor de Lys® Developer Concentrate was diluted 20-fold (e.g. 50 μl plus 950 μl Assay Buffer) in cold Assay Buffer (BML-K1143). […] The addition of SAHA to the Developer insures that HDAC activity stops when the Developer is added. The Developer was kept on ice until use.
1. Assay buffer, diluted trichostatin A or test inhibitor was added to appropriate wells of the microtiter plate.
2. Diluted HeLa extract or other HDAC sample was added to all wells except those that are to be “No Enzyme Controls.”
3. Diluted Fluor de Lys® Substrate and the samples in the microtiter plate were allowed to equilibrate to assay temperature (e.g. 25 or 37° C.).
4. HDAC reactions were initiated by adding diluted substrate (25 μl) to each well and mixing thoroughly.
5. HDAC reactions were allowed to proceed for desired length of time and then stop them by addition of Fluor de Lys® Developer (50 μl). The plates were incubated at room temperature (25° C.) for 10-15 min.
6. Samples were read in a microtiter-plate reading fluorimeter capable of excitation at a wavelength in the range 350-380 nm and detection of emitted light in the range 440-460 nm.

Structures are written as SMILES. pEC50: −log10 of the molar value. A value given as a limit tells only on which side of the number the result lay.

For the compound `O=C1CCCC(=O)N1` [glutaramide, glutarimide, reference compound], the pEC50 (usually −log10 of the EC50, conventionally taken in molar units) is under 4.60.

Consider `Nc1cccc2c1CN(C1CCC(=O)NC1=O)C2=O` (centres unmarked) [lenalidomide, reference compound], for which the pEC50 is under 4.60.

The values above are taken from patent US11584733B2, “Selective histone deacetylase inhibitors for the treatment of human disease” (Shuttle Pharmaceuticals, Inc., priority 2017, dated 2023).
